Measured values as given in ChEMBL document CHEMBL1135219, “Anti-HIV-1 activities and pharmacokinetics of new arylpiperazinyl fluoroquinolones” (Bioorg Med Chem Lett, 2002).

Legend:
[1] = Time for peak concentration (tmax) at a dose of 20 mg/kg in rats; assay type: ADME, organism-based; parameters: dose 20 mg/kg; settings: rat, in vivo
[2] = tested on: MT4; assay: The compound was tested against HIV-1(IIIB) replication on the inhibition of virus -induced cytopathogenicity in MT-4 cells.; assay type: functional, cell-based; settings: Homo sapiens
[3] = tested on: MT4; assay: The compound was tested for cytotoxicity against mock-infected MT-4 cells.; assay type: functional; settings: Homo sapiens
[4] = Peak concentration (Cmax) at a dose of 20 mg/kg in rats; assay type: ADME, organism-based; parameters: dose 20 mg/kg; settings: rat, in vivo
[5] = tested on: MT4; assay: The compound was tested against HIV-1(IIIB) replication on the inhibition of virus -induced cytopathogenicity in MT-4 cells; assay type: functional, cell-based; settings: Homo sapiens
[6] = tested on: MT4; assay: The compound was tested for cytotoxicity against mock-infected MT-4 cells; assay type: functional; settings: Homo sapiens
[7] = Half-life period after oral administration in cynomolgus monkeys; assay type: ADME, organism-based; settings: cercopithecidae, in vivo
[8] = Bioavailability was reported in cynomolgus monkeys (ratio of AUC in oral administration to that of intravenous administration); assay type: ADME, organism-based; settings: cercopithecidae, in vivo, read-out: BA
[9] = Half-life period after intravenous administration in cynomolgus monkeys; assay type: ADME, organism-based; settings: cercopithecidae, in vivo
[10] = The peak concentration (Cmax) value after oral administration in cynomolgus monkeys; assay type: ADME, organism-based; parameters: route oral; settings: cercopithecidae, in vivo
[11] = Area under curve was determined using trapezoidal rule after oral administration in cynomolgus monkeys; assay type: ADME; settings: cercopithecidae, in vivo
[12] = The total clearance was determined after intravenous administration in cynomolgus monkeys; assay type: ADME, organism-based; settings: cercopithecidae, in vivo, read-out: CLtotal (converted)
[13] = The distribution volume after intravenous administration in cynomolgus monkeys; assay type: ADME, organism-based; settings: cercopithecidae, in vivo, read-out: Vdss
[14] = The time for peak concentration value after oral administration in cynomolgus monkeys; assay type: ADME, organism-based; settings: cercopithecidae, in vivo
[15] = Area under curve was determined using trapezoidal rule after intravenous administration in cynomolgus monkeys; assay type: ADME; settings: cercopithecidae, in vivo
[16] = Mean residence time was determined after intravenous administration in cynomolgus monkeys; assay type: ADME, organism-based; settings: cercopithecidae, in vivo
[17] = Time for peak concentration (tmax) at a dose of 10 mg/kg in rats; assay type: ADME, organism-based; parameters: dose 10 mg/kg; settings: rat, in vivo
[18] = Peak concentration (Cmax) at a dose of 10 mg/kg in rats; assay type: ADME, organism-based; parameters: dose 10 mg/kg; settings: rat, in vivo

| Tmax [1] | Cmax [4] | SMILES | IC50 [2] | CC50 [3] | IC50 [5] | CC50 [6] | further results |
| --- | --- | --- | --- | --- | --- | --- | --- |
| 2 h | 6740 ng/mL | CCn1cc(C(=O)O)c(=O)c2cc(F)c(N3CCN(c4ccccn4)CC3)c(C(F)(F)F)c21 | 26 nM | 370 nM |  |  |  |
|  |  | COc1ccccc1N1CCN(c2c(F)cc3c(=O)c(C(=O)O)cn(C)c3c2C(F)F)CC1 |  |  | 350 nM | 11000 nM |  |
| 1 h | 26400 ng/mL | Cn1cc(C(=O)O)c(=O)c2cc(F)c(N3CCN(c4ccccn4)CC3)c(C(F)(F)F)c21 | 14 nM | 220 nM |  |  | half-life [7]: 7.5 h; bioavailability [8]: 93.5%; half-life [9]: 8.8 h; Cmax [10]: 1400 ng/mL; AUC [11]: 17200 ng·h/mL; clearance [12]: 0.928 mL/min/kg; Vd [13]: 0.509 L/kg; Tmax [14]: 2 h; AUC [15]: 18400 ng·h/mL; MRT [16]: 9.3 h |
| 2 h | 5460 ng/mL | CCn1cc(C(=O)O)c(=O)c2cc(F)c(N3CCN(c4ncccn4)CC3)c(C(F)(F)F)c21 | 95 nM | 1500 nM |  |  |  |
| 1 h | 58500 ng/mL | Cn1cc(C(=O)O)c(=O)c2cc(F)c(N3CCN(c4ncccn4)CC3)c(C(F)(F)F)c21 | 49 nM | 890 nM |  |  | half-life [7]: 8.7 h; bioavailability [8]: 112%; half-life [9]: 7.6 h; Cmax [10]: 1500 ng/mL; AUC [11]: 18400 ng·h/mL; clearance [12]: 1.08 mL/min/kg; Vd [13]: 0.491 L/kg; Tmax [14]: 4 h; AUC [15]: 16400 ng·h/mL; MRT [16]: 8.2 h |
|  |  | CCn1cc(C(=O)O)c(=O)c2cc(F)c(N3CCN(c4ccccn4)CC3)c(C(F)F)c21 |  |  | 890 nM | 4100 nM |  |
|  |  | CCn1cc(C(=O)O)c(=O)c2cc(F)c(N3CCN(c4ccccc4OC)CC3)c(C(F)(F)F)c21 | 110 nM | 750 nM |  |  |  |
|  |  | O=C(O)c1cn(C2CC2)c2c(C(F)F)c(N3CCN(c4ncccn4)CC3)c(F)cc2c1=O |  |  | 3700 nM | 21000 nM |  |
|  |  | COc1ccccc1N1CCN(c2c(F)cc3c(=O)c(C(=O)O)cn(C4CC4)c3c2C(F)F)CC1 | 560 nM | 12000 nM |  |  |  |
|  |  | O=C(O)c1cn(C2CC2)c2c(C(F)F)c(N3CCN(c4ccccn4)CC3)c(F)cc2c1=O |  |  | 490 nM | 9200 nM |  |
| 2 h | 5830 ng/mL | O=C(O)c1cn(C2CC2)c2c(C(F)(F)F)c(N3CCN(c4ccccn4)CC3)c(F)cc2c1=O | 65 nM | 1400 nM |  |  | bioavailability [8]: 4.3%; half-life [9]: 0.7 h; Cmax [10]: 100 ng/mL; clearance [12]: 4.89 mL/min/kg; Vd [13]: 0.225 L/kg; Tmax [14]: 2 h; AUC [15]: 3500 ng·h/mL; MRT [16]: 0.8 h |
|  |  | CCn1cc(C(=O)O)c(=O)c2cc(F)c(N3CCN(c4ncccn4)CC3)c(C(F)F)c21 | 470 nM | 20000 nM |  |  |  |
|  |  | Cn1cc(C(=O)O)c(=O)c2cc(F)c(N3CCN(c4ncccn4)CC3)c(C(F)F)c21 | 310 nM | 13000 nM |  |  |  |
|  |  | Cn1cc(C(=O)O)c(=O)c2cc(F)c(N3CCN(c4ccccn4)CC3)c(C(F)F)c21 |  |  | 240 nM | 9200 nM |  |
|  |  | CCn1cc(C(=O)O)c(=O)c2cc(F)c(N3CCN(c4ccccc4OC)CC3)c(C(F)F)c21 |  |  | 220 nM | 8300 nM |  |
| 4 h | 3460 ng/mL | COc1ccccc1N1CCN(c2c(F)cc3c(=O)c(C(=O)O)cn(C4CC4)c3c2C(F)(F)F)CC1 | 69 nM | 870 nM |  |  |  |
| 1 h | 7020 ng/mL | O=C(O)c1cn(C2CC2)c2c(C(F)(F)F)c(N3CCN(c4ncccn4)CC3)c(F)cc2c1=O | 190 nM | 5200 nM |  |  |  |
|  |  | COc1ccccc1N1CCN(c2c(F)cc3c(=O)c(C(=O)O)cn(C)c3c2C(F)(F)F)CC1 | 54 nM | 500 nM |  |  | Tmax [17]: 2 h; Cmax [18]: 2770 ng/mL |
